pIC50: −log10 of the molar value. Residues, ends and D or L forms follow the SMILES beside them. *: point of attachment. Cam = NC(=O)C*
Experiments:
E. coli ATCC 25922 = type: cell-based, Escherichia coli; conditions: ATCC 25922, 18 h
Excerpt: (§1) E. coli ML35p, Listeria monocytogenes EGD, methicillin-resistant Staphylococcus aureus (MRSA) ATCC 33591 were kindly provided by Prof. Robert Lehrer (University of California, Los Angeles, CA, USA); E. coli ATCC 25922, E. coli M15, Pseudomonas aeruginosa ATCC 27853, S. aureus ATCC 25923 were provided by Dr. Elena Ermolenko (Institute of Experimental Medicine, St-Petersburg, Russia); drug-resistant clinical isolates were provided by Prof. Gennadiy Afinogenov (Saint Petersburg State University, Russia); S. aureus 710A has been described previously. The following clinical isolates of bacteria were used: P.s aeruginosa resistant to aztreonam, ceftazidime, cefotaxime (obtained from the urine of a patient with cystitis), Acinetobacter baumannii resistant to meropenem (from an infected wound); Staphylococcus intermedius (from an infected wound caused by a dog bite) resistant to ciprofloxacin, cefuroxime, clindamycin, erythromycin, rifampin, gentamicin, benzylpenicillin, oxacillin.
(§2) This assay was applied to determine the MIC, according to the guidelines of the Clinical and Laboratory Standards Institute, using Mueller Hinton (MH) Broth. We prepared 2x stocks of peptides and serially diluted them in sterile PBS instead of Mueller Hinton Broth, so that the treatment of the bacteria with the peptides was carried out in a medium containing 50% of MH and 50% of PBS, as described. The overnight cultures of each strain were transferred to fresh MH media and further incubated to obtain a mid-logarithmic-growth-phase culture of bacteria. The absorbance of each bacterial suspension was measured at 620 nm, and bacteria were then diluted to approximately 2 × 10^5 CFU/mL. Then, 50 µL of the suspensions were mixed with 50 µL of the peptide dilutions in the wells of a microtiter plate (pre-treated for 1 h at 37 °C with 0.2% bovine serum albumin (BSA) in water, sterilized by filtration, to diminish the non-specific binding of the peptides to the plastic surfaces).

E. coli M15 = type: cell-based, Escherichia coli; conditions: M15, 18 h
Excerpt: as §1, §2

Escherichia coli ML35p = type: cell-based; conditions: broth microdilution, 50% Mueller Hinton broth / 50% PBS, 18 h at 37 °C, median of 3–5 experiments in triplicates
Excerpt: as §1, §2

[1] = system: Listeria monocytogenes EGD; type: cell-based; conditions: 18 h
Excerpt: as §1, §2

[2] = system: Pseudomonas aeruginosa ATCC 27853; type: cell-based; conditions: ATCC 27853, 18 h
Excerpt: as §1, §2

[3] = system: Staphylococcus aureus 710A; type: cell-based; conditions: 18 h
Excerpt: as §1, §2

MRSA ATCC 33591 = type: cell-based, Staphylococcus aureus; conditions: ATCC 33591, 18 h
Excerpt: as §1, §2

S. aureus ATCC 25923 = type: cell-based, Staphylococcus aureus; conditions: ATCC 25923, 18 h
Excerpt: as §1, §2

S. aureus c.i. = type: cell-based, Staphylococcus aureus; conditions: 18 h
Excerpt: as §1, §2

P. aeruginosa c.i. = type: cell-based, Pseudomonas aeruginosa; conditions: 18 h
Excerpt: as §1, §2

[4] = system: Acinetobacter baumanii c.i.; type: cell-based, Acinetobacter baumannii; conditions: 18 h
Excerpt: as §1, §2

[5] = system: Staphylococcus intermidius; type: cell-based, Staphylococcus intermedius; conditions: 18 h
Excerpt: as §1, §2

[6] = system: set of Gram-negative and Gram-positive bacteria, including drug-resistant clinical isolates; type: cell-based; conditions: 12 strains; median MICs used; MIC > 16 µM taken as 32 µM
Method: To obtain a global assessment of the effect on antimicrobial activity, the geometric mean of the MIC (G-MIC) was calculated, and from this, the overall improvement or impoverishment with respect to arenicin-1. In general, inverting the symmetry or decreasing the charge had detrimental effects.
The overall activity against a set of tested bacterial strains was determined by way of the commonly used geometric mean of measured MIC values. […] At the same time, the geometric mean can still discriminate antimicrobial agents showing minor variations in activity; in other words, it has a better “resolution” than the median MIC (MIC50). Some mathematical basics for choosing the geometric mean for antimicrobial activity comparison are further discussed in the Supplementary Chapter S3.

[7] = system: human erythroleukemia K-562 cells; type: cell-based; conditions: 24 h
Method: The standard MTT ((3-(4,5-Dimethylthiazol-2-yl)-2,5-diphenyltetrazolium bromide) test was used for the examination of the cytotoxic activity of AMPs towards human erithroleukemia cells K-562. The cells were purchased from Biolot (Saint Petersburg, Russia) and were grown in RPMI 1640 medium (Biolot, Saint Petersburg, Russia) supplemented with glutamine and 10% FCS. Before the experiment, the culturing medium was replaced with serum-free RPMI 1640. Serial dilutions of the peptides in RPMI were plated in sterile 96-well microplates, and the target cells were dispensed to the microplates (10^5 cells/well in RPMI 1640). The plates were incubated for 24 h at 37 °C under 5% CO2. Cell-free media and cells incubated without peptides served as controls. Four hours before the incubation ended, MTT in PBS (5 mg/mL) was added to each well. After the incubation was stopped by adding isopropanol/ 0.04 M HCl, the optical density was measured at 540 nm, subtracting the background absorbance at 690 nm. Toxicity was determined by nonlinear regression analysis of the corresponding dose–response curves using the Sigma Plot 11 program to calculate the IC50 values (the concentration of the test substance that reduced the OD540 capacity by 50%).

SMILES	Minimal Inhibitory Concentrations (MIC) (E. coli ATCC 25922) [µM]	Minimal Inhibitory Concentrations (MIC) (E. coli M15) [µM]	Minimal Inhibitory Concentrations (MIC) (Escherichia coli ML35p) [µM]	Minimal Inhibitory Concentrations (MIC) [1] [µM]	Minimal Inhibitory Concentrations (MIC) [2] [µM]	Minimal Inhibitory Concentrations (MIC) [3] [µM]	Minimal Inhibitory Concentrations (MIC) (MRSA ATCC 33591) [µM]	Minimal Inhibitory Concentrations (MIC) (S. aureus ATCC 25923) [µM]	Minimal Inhibitory Concentrations (MIC) (S. aureus c.i.) [µM]	Minimal Inhibitory Concentrations (MIC) (P. aeruginosa c.i.) [µM]	Minimal Inhibitory Concentrations (MIC) [4] [µM]	Minimal Inhibitory Concentrations (MIC) [5] [µM]	G-MIC (geometric mean of all determined MICs) [6] [µM]	pIC50 [7]
CC(C)C[C@@H]1NC(=O)[C@H](C(C)C)NC(=O)CNC(=O)[C@H](CCCNC(=N)N)NC(=O)[C@H](C(C)C)NC(=O)[C@H](CCCNC(=N)N)NC(=O)[C@H](C(C)C)NC(=O)[C@H](CCCNC(=N)N)NC(=O)[C@H](Cc2ccc(O)cc2)NC(=O)[C@H](CCCNC(=N)N)NC(=O)[C@H](CCCNC(=N)N)NC(=O)[C@@H](NC(=O)[C@H](Cc2c[nH]c3ccccc23)NC(=O)[C@@H](N)CCCNC(=N)N)CSSC[C@@H](C(=O)N[C@@H](Cc2c[nH]c3ccccc23)C(=O)O)NC(=O)[C@H](C(C)C)NC(=O)[C@H](Cc2ccc(O)cc2)NC(=O)[C@H](C)NC(=O)[C@H](Cc2ccc(O)cc2)NC(=O)[C@H](C(C)C)NC1=O [ARin-s] (HELM PEPTIDE1{R.W.C.R.R.Y.R.V.R.V.R.G.V.L.V.Y.A.Y.V.C.W}$PEPTIDE1,PEPTIDE1,3:R3-20:R3$$$V2.0; N-terminus assumed)	8	8	4 to 8	2	4 to 8	16	>16	16	>16	>16	16	>16	≥12.8	4.42
CC(C)C[C@H](NC(=O)[C@@H](NC(=O)CNC(=O)[C@H](CCCNC(=N)N)NC(=O)[C@@H](NC(=O)[C@H](CCCNC(=N)N)NC(=O)[C@@H](NC(=O)[C@H](Cc1ccc(O)cc1)NC(=O)[C@H](C)NC(=O)[C@H](Cc1ccc(O)cc1)NC(=O)[C@@H](NC(=O)[C@H](CSCC(N)=O)NC(=O)[C@H](Cc1c[nH]c2ccccc12)NC(=O)[C@@H](N)CCCNC(=N)N)C(C)C)C(C)C)C(C)C)C(C)C)C(=O)N[C@H](C(=O)N[C@@H](CCCNC(=N)N)C(=O)N[C@@H](Cc1ccc(O)cc1)C(=O)N[C@@H](CCCNC(=N)N)C(=O)N[C@@H](CCCNC(=N)N)C(=O)N[C@@H](CSCC(N)=O)C(=O)N[C@@H](Cc1c[nH]c2ccccc12)C(=O)O)C(C)C [ARlin] (H-RWC(Cam)VYAYVRVRGVLVRYRRC(Cam)W-OH; N-terminus assumed)	2	2	1 to 2	2	2	2	4	2	8 to 16	4 to 8	4	8	3.1	< 4.40
CC(C)C[C@@H]1NC(=O)[C@H](C(C)C)NC(=O)[C@H](CCCNC(=N)N)NC(=O)[C@H](Cc2ccc(O)cc2)NC(=O)[C@H](CCCNC(=N)N)NC(=O)[C@H](CCCNC(=N)N)NC(=O)[C@@H](NC(=O)[C@@H](N)Cc2c[nH]c3ccccc23)CSSC[C@H](NC(=O)[C@@H](N)Cc2c[nH]c3ccccc23)C(=O)N[C@@H](CCCNC(=N)N)C(=O)N[C@@H](CCCNC(=N)N)C(=O)N[C@@H](Cc2ccc(O)cc2)C(=O)N[C@@H](CCCNC(=N)N)C(=O)N[C@@H](C(C)C)C(=O)N[C@@H](CC(C)C)C(=O)N[C@@H](C(C)C)C(=O)N[C@H](C(=O)N[C@@H](CN)C(N)=O)CCCNC(=O)[C@H](C(C)C)NC1=O [ARs-C-B] (HELM PEPTIDE1{W.C.R.R.Y.R.V.L.V.[Orn].[NC[C@H](N[*:1])C(=O)[*:2]].[am]}|PEPTIDE2{W.C.R.R.Y.R.V.L.V}$PEPTIDE1,PEPTIDE2,2:R3-2:R3|PEPTIDE1,PEPTIDE2,10:R3-9:R2$$$V2.0; N-terminus assumed)	4	8	1 to 2	2	1	4	8	4	4 to 8	16	8 to 16	4	4.4	4.41
CC(C)C[C@@H]1NC(=O)[C@H](C(C)C)NC(=O)CNC(=O)[C@H](CCCNC(=N)N)NC(=O)[C@H](C(C)C)NC(=O)[C@H](CC(C)C)NC(=O)[C@H](C(C)C)NC(=O)[C@H](CCCNC(=N)N)NC(=O)[C@H](Cc2ccc(O)cc2)NC(=O)[C@H](CCCNC(=N)N)NC(=O)[C@H](CCCNC(=N)N)NC(=O)[C@@H](NC(=O)[C@@H](N)Cc2c[nH]c3ccccc23)CSSC[C@@H](C(=O)N[C@@H](Cc2c[nH]c3ccccc23)C(=O)O)NC(=O)[C@H](CCCNC(=N)N)NC(=O)[C@H](CCCNC(=N)N)NC(=O)[C@H](Cc2ccc(O)cc2)NC(=O)[C@H](CCCNC(=N)N)NC(=O)[C@H](C(C)C)NC1=O [ARs-C] (HELM PEPTIDE1{W.C.R.R.Y.R.V.L.V.R.G.V.L.V.R.Y.R.R.C.W}$PEPTIDE1,PEPTIDE1,2:R3-19:R3$$$V2.0; N-terminus assumed)	2	2	1	1	1	2 to 4	4 to 8	4	16	16	2	8	3.2	4.94
